Source: patent US20130202657A1, “FOAMS OR PARTICLES FOR APPLICATIONS SUCH AS DRUG DELIVERY” (BASF SE, priority 2010, published 2013)

Columns and labels:
[1] = Solubility of APIs in PVPVA (thin layer dried on glass slide, optical microscopy); format: physicochemical; conditions: % by mass in PVPVA; bright-field and cross-polarized optical microscopy
Method: The effect of API loading on PVPVA foams was studied next. To make API-laden polymer foams, a model API was added to the polymer before foaming. Clotrimazole and cholesterol were used in this example as model APIs. PVPVA was loaded with the API at concentrations ranging from 0% by mass to 30% by mass, as described above. The solubility of APIs in PVPVA was first tested by dissolving both the API and the polymer in a solvent, then spreading a thin layer on a glass slide to dry. […] These crystals were visible under bright-field and cross-polarized optical microscopy. […] Solid solutions of clotrimazole were obtained at up to 20% loading.

[2] = at typical operating pressures and temperatures; cited from earlier work

API loading in PVPVA at which crystals precipitate [1]: about 30%
Compound: CC(C)CCC[C@@H](C)[C@H]1CC[C@H]2[C@@H]3CC=C4C[C@@H](O)CC[C@]4(C)[C@H]3CC[C@]12C [cholesterol]
solubility in CO2 [2]: about 2 g/l
